The conditions of series [1]: administered locally; cited from earlier work.
The conditions of series [2]: cited from earlier work.
A short description of series [3]: Phase I study of the toxicity of local carboplatin. It is filed as in vivo. The note with it: following 6 local injections of carboplatin. As to the method:
Protection Against Local Orbital or Periocular Toxicity: The periocular delivery of therapeutic agents is employed when increased amounts of the agent are needed inside the eye. In the case of advanced intraocular retinoblastoma, tumor cells in the vitreous gel are not exposed to sufficient amounts of the chemotherapeutic agents. For this reason, local periocular carboplatin is added to the regimen of systemic chemotherapy for advanced disease. […] Mulvihill et al. reported the complications associated with periocular injections of the chemotherapeutic agent carboplatin in infants with retinoblastoma. This emphasizes the need of a sealed system for unidirectional delivery of toxic agents to the eye.

For series [4] the following is noted: cited from earlier work. The source holds these as a separate data set.

On to `COc1cc([C@@H]2c3cc4c(cc3[C@@H](O[C@@H]3O[C@@H]5CO[C@@H](C)O[C@H]5[C@H](O)[C@H]3O)[C@H]3COC(=O)[C@H]23)OCO4)cc(OC)c1O` [Etoposide], for which the local toxicity entry in series [1] is given as “extremely toxic when administered locally”.

In the case of `CO[C@@H]1[C@H](N(C)C(=O)c2ccccc2)C[C@H]2O[C@]1(C)n1c3ccccc3c3c4c(c5c6ccccc6n2c5c31)C(=O)NC4` [PKC412], in series [2] (administered orally), the “side effects when administered orally” value is “nausea and diarrhea”. In addition, the “toxicity by the periocular route” value in series [2] (periocular route, simple injections) was “ocular irritation and toxicity was observed”.

Consider `N.N.O=C([O-])C1(C(=O)[O-])CCC1.[Pt+2]` [carboplatin], for which the long-term toxic effects entry in series [3] was “atrophy of the orbital fat and connective tissue”. In addition, in series [4] (bolus injected into the periocular space), the local tissue tolerance result is “well tolerated by the local tissue”. Besides, the “complications after periocular injection” value in series [4] (periocular injections, after a certain period following the injection) was “ocular motility problems, including restriction of the eye movements”.

These data come from patent US7749528B2, “Implantable and sealable medical device for unidirectional delivery of therapeutic agents to tissues” (priority 2001, dated 2010).
